Measured values published in patent US10479780B2, “Aminopyrazole derivatives” (Chugai Seiyaku Kabushiki Kaisha, priority 2015, dated 2019).
pIC50: −log10 of the molar value. Where two headings read alike, the source gives them in different places.

Experiments:
Format in all cases: biochemical
human Src enzyme = target: T1, human Src enzyme (Homo sapiens, UniProt P12931); experiment: Src enzyme inhibitory activity (time-resolved fluorometry, biotinylated peptide phosphorylation); settings: read-out: SRC_IC50
T1 construct: purchased Carna Biosciences, Inc. 08-173
T1 sequence (P12931 whole entry): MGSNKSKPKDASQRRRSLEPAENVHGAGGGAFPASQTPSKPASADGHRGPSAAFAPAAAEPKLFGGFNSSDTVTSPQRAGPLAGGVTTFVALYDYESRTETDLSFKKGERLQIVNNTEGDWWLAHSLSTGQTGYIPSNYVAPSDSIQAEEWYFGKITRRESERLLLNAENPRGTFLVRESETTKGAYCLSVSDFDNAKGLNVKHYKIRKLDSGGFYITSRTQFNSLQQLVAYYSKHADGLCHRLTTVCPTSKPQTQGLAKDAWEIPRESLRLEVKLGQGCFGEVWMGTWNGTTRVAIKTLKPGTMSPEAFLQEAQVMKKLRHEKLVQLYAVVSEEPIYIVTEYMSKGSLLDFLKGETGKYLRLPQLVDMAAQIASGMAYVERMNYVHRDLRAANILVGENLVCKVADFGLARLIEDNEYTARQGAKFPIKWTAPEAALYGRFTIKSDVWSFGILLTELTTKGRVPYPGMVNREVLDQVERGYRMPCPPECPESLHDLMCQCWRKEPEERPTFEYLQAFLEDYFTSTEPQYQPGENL
How it was run: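 Compounds were tested for blocking tyrosine phosphorylation of a biotinylated peptide substrate by recombinant human Src. Phosphorylated product was quantified by time-resolved fluorometry using europium cryptate and XL665 conjugates, and IC50 was calculated against the compound-free control.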

human Yes1 enzyme = target: T2, human Yes1 enzyme (Homo sapiens, UniProt P07947); experiment: Yes1 enzyme inhibitory activity (time-resolved fluorometry, biotinylated peptide phosphorylation); settings: read-out: YES_IC50
T2 construct: made in house
T2 sequence (P07947 whole entry): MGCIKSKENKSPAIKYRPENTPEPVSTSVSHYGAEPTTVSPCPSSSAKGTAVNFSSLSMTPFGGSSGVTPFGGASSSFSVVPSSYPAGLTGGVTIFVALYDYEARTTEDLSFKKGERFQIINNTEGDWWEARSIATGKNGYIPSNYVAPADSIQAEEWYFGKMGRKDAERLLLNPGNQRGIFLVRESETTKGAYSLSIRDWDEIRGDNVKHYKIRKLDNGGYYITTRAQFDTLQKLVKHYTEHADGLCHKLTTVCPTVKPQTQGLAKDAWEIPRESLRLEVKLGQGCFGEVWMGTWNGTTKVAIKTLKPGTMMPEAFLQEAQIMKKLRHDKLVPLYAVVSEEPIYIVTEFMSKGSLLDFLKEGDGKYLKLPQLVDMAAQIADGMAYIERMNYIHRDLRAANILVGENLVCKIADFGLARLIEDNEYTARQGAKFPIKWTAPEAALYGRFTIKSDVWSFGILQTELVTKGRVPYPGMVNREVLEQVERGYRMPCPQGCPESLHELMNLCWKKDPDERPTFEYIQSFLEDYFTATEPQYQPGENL
How it was run: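 Inhibition was expressed against a compound-free control to give IC50, using TR-FRET read-out (Eu-cryptate anti-pTyr antibody, streptavidin-XL665).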

human Lck enzyme = target: T3, human Lck enzyme (Homo sapiens, UniProt P06239); experiment: Lck enzyme inhibitory activity (time-resolved fluorometry, biotinylated peptide phosphorylation); settings: read-out: LCK_IC50
T3 construct: purchased Carna Biosciences, Inc. 08-170
T3 sequence (P06239 whole entry): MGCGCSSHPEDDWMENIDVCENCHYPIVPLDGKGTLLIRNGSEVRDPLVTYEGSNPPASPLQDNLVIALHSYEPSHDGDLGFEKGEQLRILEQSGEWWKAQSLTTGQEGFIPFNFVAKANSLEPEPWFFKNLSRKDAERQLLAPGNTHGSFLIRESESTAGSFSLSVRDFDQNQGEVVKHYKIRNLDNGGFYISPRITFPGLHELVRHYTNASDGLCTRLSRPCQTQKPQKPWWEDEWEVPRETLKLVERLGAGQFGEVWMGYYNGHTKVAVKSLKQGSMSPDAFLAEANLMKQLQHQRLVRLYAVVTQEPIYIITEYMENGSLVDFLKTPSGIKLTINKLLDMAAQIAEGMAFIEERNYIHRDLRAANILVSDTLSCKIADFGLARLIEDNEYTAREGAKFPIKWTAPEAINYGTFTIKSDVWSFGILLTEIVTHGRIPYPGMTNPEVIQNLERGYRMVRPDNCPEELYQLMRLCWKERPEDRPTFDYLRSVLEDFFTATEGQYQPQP
How it was run: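 Readout pairs a europium cryptate-labelled anti-phosphotyrosine antibody with XL665-streptavidin, measured by time-resolved fluorescence. IC50 derived from percent inhibition against untreated controls.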

[1] = biotinylated peptide phosphorylation

Compound | pIC50 (human Src enzyme; [1]) | pIC50 (human Yes1 enzyme; [1]) | pIC50 (human Lck enzyme; [1]) | pIC50 (human Src enzyme) | pIC50 (human Yes1 enzyme) | pIC50 (human Lck enzyme)
Cc1cc(Oc2ccc(F)cc2)ncc1-n1ncc(C(=O)c2cc3cc(F)c(NS(C)(=O)=O)cc3[nH]2)c1N [Example 4-2-039, N-[2-[5-amino-1-[6-(4-fluorophenoxy)-4-methylpyridin-3-yl]pyrazole-4-carbonyl]-5-fluoro-1H-indol-6-yl]methanesulfonamide] | 7.08 | 8.39 | 7.49 |  |  | 
Cc1cc(Oc2ccccc2F)ccc1-n1ncc(C(=O)c2cc3cc(F)c(-n4c(C)cc(=O)[nH]c4=O)cc3[nH]2)c1N [Example 5-1-104, 1-[2-[5-amino-1-[4-(2-fluorophenoxy)-2-methylphenyl]pyrazole-4-carbonyl]-5-fluoro-1H-indol-6-yl]-6-methylpyrimidine-2,4-dione] |  |  |  | 8.01 | 9.20 | 8.96
Cc1cc(Oc2ccccc2F)ccc1-n1ncc(C(=O)c2cc3cc(F)c(NS(=O)(=O)NC4CC4)cc3[nH]2)c1N [Example 4-5-010, [5-amino-1-[4-(2-fluorophenoxy)-2-methylphenyl]pyrazol-4-yl]-[6-(cyclopropylsulfamoylamino)-5-fluoro-1H-indol-2-yl]methanone] | 7.47 | 8.74 | 7.66 |  |  | 
Cc1cc2cc(C(=O)c3cnn(-c4cnc(Oc5c(F)cccc5F)cc4C)c3N)[nH]c2cc1NS(=O)(=O)C1CCCC1 [Example 5-1-317, N-[2-[5-amino-1-[6-(2,6-difluorophenoxy)-4-methylpyridin-3-yl]pyrazole-4-carbonyl]-5-methyl-1H-indol-6-yl]cyclopentanesulfonamide] |  |  |  | 6.30 | 7.80 | 6.96
Cc1cc2cc(C(=O)c3cnn(-c4cnc(Oc5cccc(Cl)c5)cc4C)c3N)[nH]c2cc1NS(C)(=O)=O [Example 4-2-066, N-[2-[5-amino-1-[6-(3-chlorophenoxy)-4-methylpyridin-3-yl]pyrazole-4-carbonyl]-5-methyl-1H-indol-6-yl]methanesulfonamide] | 6.80 | 8.03 | 7.44 |  |  | 
Cc1cc(Oc2cccc(Cl)c2)ncc1-n1ncc(C(=O)c2cc3cc(F)c(NS(C)(=O)=O)cc3[nH]2)c1N [Example 4-2-037, N-[2-[5-amino-1-[6-(3-chlorophenoxy)-4-methylpyridin-3-yl]pyrazole-4-carbonyl]-5-fluoro-1H-indol-6-yl]methanesulfonamide] | 7.11 | 8.96 | 7.52 |  |  | 
COC(=O)[C@H](Cc1cnc[nH]1)NC(=O)Nc1cc2[nH]c(C(=O)c3cnn(-c4ccc(Oc5ccccc5F)cc4C)c3N)cc2cc1OCC(F)F [Example 5-1-246, Methyl (2S)-2-[[2-[5-amino-1-[4-(2-fluorophenoxy)-2-methylphenyl]pyrazole-4-carbonyl]-5-(2,2-difluoroethoxy)-1H-indol-6-yl]carbamoylamino]-3-(1H-imidazol-5-yl) propanoate] |  |  |  | 7.80 | 8.80 | 8.15
Cc1cc(Oc2c(F)cccc2F)ncc1-n1ncc(C(=O)c2cc3cc(OCC(F)F)c(N4C(=O)NC5(CCN(C6COC6)C5)C4=O)cc3[nH]2)c1N (stereo not drawn) [Example 5-1-352, 3-[2-[5-amino-1-[6-(2,6-difluorophenoxy)-4-methylpyridin-3-yl]pyrazole-4-carbonyl]-5-(2,2-difluoroethoxy)-1H-indol-6-yl]-7-(oxetan-3-yl)-1,3,7-triazaspiro[4.4]nonane-2,4-dione] |  |  |  | 6.80 | 7.96 | 7.77
Cc1cc(Oc2ccccc2F)ccc1-n1ncc(C(=O)c2cc3cc(OC(F)F)c(NS(C)(=O)=O)cc3[nH]2)c1N [Example 4-24-002, N-[2-[5-amino-1-[4-(2-fluorophenoxy)-2-methylphenyl]pyrazole-4-carbonyl]-5-(difluoromethoxy)-1H-indol-6-yl]methanesulfonamide] | 7.46 | 8.80 | 8.00 |  |  | 
Cc1cc2cc(C(=O)c3cnn(-c4cnc(Oc5ccccc5F)cc4C)c3N)[nH]c2cc1NS(=O)(=O)c1cncc(C#N)c1 [Example 5-1-480, N-[2-[5-amino-1-[6-(2-fluorophenoxy)-4-methylpyridin-3-yl]pyrazole-4-carbonyl]-5-methyl-1H-indol-6-yl]-5-cyanopyridine-3-sulfonamide] | 6.40 | 8.19 | 7.00 |  |  | 
Cc1cc(-n2ncc(C(=O)c3cc4cc(OCC(F)F)c(-c5cncnc5)cc4[nH]3)c2N)ccc1Oc1ccccc1F [Example 5-1-261, [5-amino-1-[4-(2-fluorophenoxy)-3-methylphenyl]pyrazol-4-yl]-[5-(2,2-difluoroethoxy)-6-pyrimidin-5-yl-1H-indol-2-yl]methanone] |  |  |  | 6.41 | 8.10 | 6.70
Cc1cc(Oc2ccccc2F)ccc1-n1ncc(C(=O)c2cc3cc(F)c(NS(=O)(=O)CC(=O)NC(C)C)cc3[nH]2)c1N [Example 4-10-002, 2-[[2-[5-amino-1-[4-(2-fluorophenoxy)-2-methylphenyl]pyrazole-4-carbonyl]-5-fluoro-1H-indol-6-yl]sulfamoyl]-N-propan-2-ylacetamide] | 7.57 | 9.11 | 7.96 |  |  | 
Cc1cc(Oc2ccccc2F)ccc1-n1ncc(C(=O)c2cc3cc(F)c(N4CCN(S(C)(=O)=O)CC4)cc3[nH]2)c1N [Example 5-1-125, [5-amino-1-[4-(2-fluorophenoxy)-2-methylphenyl]pyrazol-4-yl]-[5-fluoro-6-(4-methylsulfonylpiperazin-1-yl)-1H-indol-2-yl] methanone] |  |  |  | 7.48 | 9.15 | 8.04
Nc1c(C(=O)c2cc3cc(F)c(NS(=O)(=O)CCCF)cc3[nH]2)cnn1-c1ccc(Oc2ncccc2Cl)cc1F [Example 5-1-036, N-[2-[5-amino-1-[4-(3-chloropyridin-2-yl)oxy-2-fluorophenyl]pyrazole-4-carbonyl]-5-fluoro-1H-indol-6-yl]-3-fluoropropane-1-sulfonamide] |  |  |  | 6.85 | 8.82 | 7.19
Cc1cc(Oc2ccccc2F)ccc1-n1ncc(C(=O)c2cc3cc(F)c(NS(=O)(=O)NC4COC4)cc3[nH]2)c1N [Example 4-5-005, [5-amino-1-[4-(2-fluorophenoxy)-2-methylphenyl]pyrazol-4-yl]-[5-fluoro-6-(oxetan-3-ylsulfamoylamino)-1H-indol-2-yl]methanone] | 7.54 | 9.29 | 7.96 |  |  | 
Cc1cc(Oc2ccccc2F)ccc1-n1ncc(C(=O)c2cc3cc(OCC(F)F)c(NS(=O)(=O)N4CCOCC4)cc3[nH]2)c1N [Example 4-22-005, N-[2-[5-amino-1-[4-(2-fluorophenoxy)-2-methylphenyl]pyrazole-4-carbonyl]-5-(2,2-difluoroethoxy)-1H-indol-6-yl]morpholine-4-sulfonamide] | 7.36 | 8.74 | 7.70 |  |  | 
Cc1cc(Oc2ccccc2F)cc(F)c1-n1ncc(C(=O)c2cc3cc(OC(F)F)c(NS(=O)(=O)CCCF)cc3[nH]2)c1N [Example 4-24-006, N-[2-[5-amino-1-[2-fluoro-4-(2-fluorophenoxy)-6-methylphenyl]pyrazole-4-carbonyl]-5-(difluoromethoxy)-1H-indol-6-yl]-3-fluoropropane-1-sulfonamide] | 6.70 | 8.35 | 7.29 |  |  | 
Cc1cc(Oc2c(F)cccc2F)ncc1-n1ncc(C(=O)c2cc3cc(F)c(NS(C)(=O)=O)cc3[nH]2)c1N [Example 4-2-031, N-[2-[5-amino-1-[6-(2,6-difluorophenoxy)-4-methylpyridin-3-yl]pyrazole-4-carbonyl]-5-fluoro-1H-indol-6-yl]methanesulfonamide] | 7.43 | 9.16 | 8.37 |  |  | 
Cc1cc(Oc2ccccc2F)ccc1-n1ncc(C(=O)c2cc3cc(F)c(NS(=O)(=O)NC4CCC4)cc3[nH]2)c1N [Example 4-5-006, [5-amino-1-[4-(2-fluorophenoxy)-2-methylphenyl]pyrazol-4-yl]-[6-(cyclobutylsulfamoylamino)-5-fluoro-1H-indol-2-yl]methanone] | 6.85 | 8.17 | 7.21 |  |  | 
Cc1cc(Oc2ccccc2F)ncc1-n1ncc(C(=O)c2cc3cc(C4CC4)c(NS(=O)(=O)C4CCOCC4)cc3[nH]2)c1N [Example 5-1-396, N-[2-[5-amino-1-[6-(2-fluorophenoxy)-4-methylpyridin-3-yl]pyrazole-4-carbonyl]-5-cyclopropyl-1H-indol-6-yl]oxane-4-sulfonamide] |  |  |  | 6.64 | 8.44 | 7.17
Cc1cc(-n2ncc(C(=O)c3cc4cc(OC[C@H](O)CO)c(NS(C)(=O)=O)cc4[nH]3)c2N)ccc1Oc1ccccc1F [Example 5-1-242, (R)—N-(2-(5-amino-1-(4-(2-fluorophenoxy)-3-methylphenyl)-1H-pyrazole-4-carbonyl)-5-(2,3-dihydroxypropoxy)-1H-indol-6-yl)methanesulfonamide] |  |  |  | 6.30 | 8.72 | 6.80
Nc1c(C(=O)c2cc3cc(F)c(NS(=O)(=O)C4CC4)cc3[nH]2)cnn1-c1c(Cl)cc(Oc2cccc(F)c2F)cc1Cl [Example 5-1-026, N-[2-[5-amino-1-[2,6-dichloro-4-(2,3-difluorophenoxy)phenyl]pyrazole-4-carbonyl]-5-fluoro-1H-indol-6-yl] cyclopropanesulfonamide] |  |  |  | 6.18 | 7.19 | 6.41
